ChEMBL document CHEMBL1152764, “Penicilliols A and B, novel inhibitors specific to mammalian Y-family DNA polymerases” (Bioorg Med Chem, 2009)
Calls of active or inactive are those of the source. The calls are words filed in the database; no cut-off is given here.

Tests used:
[1] = molecular target: T1, DNA polymerase kappa (Homo sapiens) (UniProt Q9UBT6); assay: Inhibition of human DNA polymerase kappa
T1 sequence (whole entry): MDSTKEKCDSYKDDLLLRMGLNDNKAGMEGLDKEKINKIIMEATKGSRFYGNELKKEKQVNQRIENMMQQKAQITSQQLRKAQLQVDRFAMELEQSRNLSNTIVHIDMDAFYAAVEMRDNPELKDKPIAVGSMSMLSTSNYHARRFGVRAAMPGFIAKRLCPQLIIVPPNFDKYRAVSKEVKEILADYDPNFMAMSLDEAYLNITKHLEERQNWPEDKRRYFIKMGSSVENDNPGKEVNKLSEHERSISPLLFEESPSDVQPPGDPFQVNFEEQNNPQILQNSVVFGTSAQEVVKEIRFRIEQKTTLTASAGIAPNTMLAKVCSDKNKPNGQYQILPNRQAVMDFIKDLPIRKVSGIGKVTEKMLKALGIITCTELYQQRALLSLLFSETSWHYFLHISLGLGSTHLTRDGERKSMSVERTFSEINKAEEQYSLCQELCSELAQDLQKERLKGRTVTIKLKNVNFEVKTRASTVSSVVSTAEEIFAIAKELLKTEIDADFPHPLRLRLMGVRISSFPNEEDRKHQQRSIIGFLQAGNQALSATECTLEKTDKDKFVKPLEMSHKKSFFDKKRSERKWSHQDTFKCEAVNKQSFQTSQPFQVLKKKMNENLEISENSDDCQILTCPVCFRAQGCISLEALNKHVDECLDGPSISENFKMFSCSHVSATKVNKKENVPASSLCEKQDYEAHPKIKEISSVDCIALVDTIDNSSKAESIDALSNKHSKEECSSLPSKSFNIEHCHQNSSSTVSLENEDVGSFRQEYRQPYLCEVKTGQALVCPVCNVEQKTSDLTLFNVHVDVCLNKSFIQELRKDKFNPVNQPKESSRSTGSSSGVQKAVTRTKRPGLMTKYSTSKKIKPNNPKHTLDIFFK

[2] = molecular target: T2, DNA polymerase iota (Mus musculus) (UniProt Q6R3M4); assay: Inhibition of mouse DNA polymerase iota
T2 sequence (whole entry): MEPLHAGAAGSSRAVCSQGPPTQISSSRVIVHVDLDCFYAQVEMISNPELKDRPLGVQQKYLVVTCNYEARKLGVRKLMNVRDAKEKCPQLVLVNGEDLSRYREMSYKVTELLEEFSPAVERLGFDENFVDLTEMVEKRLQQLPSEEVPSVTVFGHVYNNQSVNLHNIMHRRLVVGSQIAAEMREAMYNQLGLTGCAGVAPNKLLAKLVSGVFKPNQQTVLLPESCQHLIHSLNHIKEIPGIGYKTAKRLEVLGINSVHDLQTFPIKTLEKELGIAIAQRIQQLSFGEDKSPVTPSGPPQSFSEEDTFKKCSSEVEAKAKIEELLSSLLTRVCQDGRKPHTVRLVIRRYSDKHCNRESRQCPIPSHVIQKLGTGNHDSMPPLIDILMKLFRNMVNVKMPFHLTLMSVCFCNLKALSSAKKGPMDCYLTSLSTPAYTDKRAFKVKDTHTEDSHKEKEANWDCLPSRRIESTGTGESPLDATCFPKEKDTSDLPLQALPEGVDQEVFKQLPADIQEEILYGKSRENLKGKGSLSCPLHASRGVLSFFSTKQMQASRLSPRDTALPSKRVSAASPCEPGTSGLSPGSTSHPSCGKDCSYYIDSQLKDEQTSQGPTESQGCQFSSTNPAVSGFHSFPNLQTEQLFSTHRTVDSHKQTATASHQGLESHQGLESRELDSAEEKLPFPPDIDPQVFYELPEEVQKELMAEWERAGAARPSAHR

[3] = molecular target: T3, DNA polymerase eta (Homo sapiens) (UniProt Q9Y253); assay: Inhibition of human DNA polymerase eta
T3 sequence (whole entry): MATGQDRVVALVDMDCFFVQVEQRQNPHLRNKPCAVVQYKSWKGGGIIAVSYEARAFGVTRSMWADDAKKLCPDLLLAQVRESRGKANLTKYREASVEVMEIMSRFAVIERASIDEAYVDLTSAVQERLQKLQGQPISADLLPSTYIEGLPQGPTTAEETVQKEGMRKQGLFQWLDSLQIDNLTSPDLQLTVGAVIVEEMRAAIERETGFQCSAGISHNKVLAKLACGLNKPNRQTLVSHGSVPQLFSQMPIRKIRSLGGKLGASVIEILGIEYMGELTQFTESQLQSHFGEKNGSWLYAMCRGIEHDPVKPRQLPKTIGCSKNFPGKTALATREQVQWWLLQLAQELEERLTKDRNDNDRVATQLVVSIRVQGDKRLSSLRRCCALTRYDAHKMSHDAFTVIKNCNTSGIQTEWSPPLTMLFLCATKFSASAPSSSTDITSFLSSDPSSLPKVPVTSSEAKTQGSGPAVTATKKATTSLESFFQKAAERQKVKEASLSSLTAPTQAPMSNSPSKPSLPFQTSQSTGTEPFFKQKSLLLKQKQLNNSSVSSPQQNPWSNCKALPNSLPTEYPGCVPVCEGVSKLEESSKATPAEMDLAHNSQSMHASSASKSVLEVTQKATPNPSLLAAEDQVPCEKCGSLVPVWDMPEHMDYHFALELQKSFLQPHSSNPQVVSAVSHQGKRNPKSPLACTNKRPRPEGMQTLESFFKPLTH

[4] = molecular target: T1, DNA polymerase kappa (Homo sapiens); assay: Inhibition of human DNA polymerase kappa at 100 uM
[5] = molecular target: T2, DNA polymerase iota (Mus musculus); assay: Inhibition of mouse DNA polymerase iota at 100 uM
[6] = molecular target: T3, DNA polymerase eta (Homo sapiens); assay: Inhibition of human DNA polymerase eta at 100 uM
Homo sapiens [7] = species on record: Homo sapiens; assay: Inhibition of human DNA polymerase gamma at 100 uM
Bos taurus [8] = species on record: Bos taurus; assay: Inhibition of calf DNA polymerase alpha at 100 uM
Homo sapiens [9] = species on record: Homo sapiens; assay: Inhibition of human DNA polymerase delta at 100 uM
Homo sapiens [10] = species on record: Homo sapiens; assay: Inhibition of human DNA polymerase epsilon at 100 uM
[11] = molecular target: DNA polymerase beta (Rattus norvegicus) (UniProt P06766); assay: Inhibition of rat DNA polymerase beta at 100 uM
[12] = molecular target: DNA polymerase lambda (Homo sapiens) (UniProt Q9UGP5); assay: Inhibition of human DNA polymerase lambda at 100 uM
[13] = molecular target: DNA nucleotidylexotransferase (Bos taurus) (UniProt P06526); assay: Inhibition of calf terminal deoxynucleotidyltransferase at 100 uM
Oncorhynchus masou = assay: Inhibition of cherry salmon DNA polymerase delta at 100 uM
Drosophila melanogaster [14] = assay: Inhibition of fruit fly DNA polymerase alpha at 100 uM
Drosophila melanogaster [15] = assay: Inhibition of fruit fly DNA polymerase delta at 100 uM
Drosophila melanogaster [16] = assay: Inhibition of fruit fly DNA polymerase epsilon at 100 uM
[17] = test system: Brassica oleracea var. botrytis; assay: Inhibition of cauliflower DNA polymerase alpha at 100 uM
Escherichia coli = assay: Inhibition of Escherichia coli DNA polymerase 1 Klenow fragment at 100 uM
[18] = molecular target: DNA-directed DNA polymerase (Enterobacteria phage T4) (UniProt P04415); assay: Inhibition of Enterobacteria phage T4 DNA polymerase at 100 uM; conditions: Tequatrovirus T4
Thermus aquaticus = assay: Inhibition of Taq DNA polymerase at 100 uM
Bos taurus [19] = species on record: Bos taurus; assay: Inhibition of calf primase of DNA polymerase alpha at 100 uM
[20] = molecular target: Human immunodeficiency virus type 1 reverse transcriptase (Human immunodeficiency virus 1) (UniProt Q72547); assay: Inhibition of HIV-1 reverse transcriptase at 100 uM
[21] = molecular target: Telomerase reverse transcriptase (Homo sapiens) (UniProt O14746); assay: Inhibition of human telomerase at 100 uM
Escherichia phage T7 = assay: Inhibition of Enterobacteria phage T7 RNA polymerase at 100 uM
[22] = molecular target: Inosine-5'-monophosphate dehydrogenase 2 (Mus musculus) (UniProt P24547); assay: Inhibition of mouse IMP dehydrogenase 2 at 100 uM
[23] = molecular target: DNA topoisomerase 1 (Homo sapiens) (UniProt P11387); assay: Inhibition of human DNA topoisomerase 1 at 100 uM
Homo sapiens [24] = species on record: Homo sapiens; assay: Inhibition of human DNA topoisomerase 2 at 100 uM
[25] = molecular target: Polynucleotide kinase (Enterobacteria phage T4) (UniProt P06855); assay: Inhibition of Enterobacteria phage T4 Polynucleotide kinase at 100 uM; conditions: Tequatrovirus T4
[26] = molecular target: Deoxyribonuclease-1 (Bos taurus) (UniProt P00639); assay: Inhibition of bovine deoxyribonuclease 1 at 100 uM
Oryza sativa = assay: Inhibition of rice DNA polymerase lambda at 100 uM

Sequence of Telomerase reverse transcriptase (Homo sapiens) (O14746 whole entry): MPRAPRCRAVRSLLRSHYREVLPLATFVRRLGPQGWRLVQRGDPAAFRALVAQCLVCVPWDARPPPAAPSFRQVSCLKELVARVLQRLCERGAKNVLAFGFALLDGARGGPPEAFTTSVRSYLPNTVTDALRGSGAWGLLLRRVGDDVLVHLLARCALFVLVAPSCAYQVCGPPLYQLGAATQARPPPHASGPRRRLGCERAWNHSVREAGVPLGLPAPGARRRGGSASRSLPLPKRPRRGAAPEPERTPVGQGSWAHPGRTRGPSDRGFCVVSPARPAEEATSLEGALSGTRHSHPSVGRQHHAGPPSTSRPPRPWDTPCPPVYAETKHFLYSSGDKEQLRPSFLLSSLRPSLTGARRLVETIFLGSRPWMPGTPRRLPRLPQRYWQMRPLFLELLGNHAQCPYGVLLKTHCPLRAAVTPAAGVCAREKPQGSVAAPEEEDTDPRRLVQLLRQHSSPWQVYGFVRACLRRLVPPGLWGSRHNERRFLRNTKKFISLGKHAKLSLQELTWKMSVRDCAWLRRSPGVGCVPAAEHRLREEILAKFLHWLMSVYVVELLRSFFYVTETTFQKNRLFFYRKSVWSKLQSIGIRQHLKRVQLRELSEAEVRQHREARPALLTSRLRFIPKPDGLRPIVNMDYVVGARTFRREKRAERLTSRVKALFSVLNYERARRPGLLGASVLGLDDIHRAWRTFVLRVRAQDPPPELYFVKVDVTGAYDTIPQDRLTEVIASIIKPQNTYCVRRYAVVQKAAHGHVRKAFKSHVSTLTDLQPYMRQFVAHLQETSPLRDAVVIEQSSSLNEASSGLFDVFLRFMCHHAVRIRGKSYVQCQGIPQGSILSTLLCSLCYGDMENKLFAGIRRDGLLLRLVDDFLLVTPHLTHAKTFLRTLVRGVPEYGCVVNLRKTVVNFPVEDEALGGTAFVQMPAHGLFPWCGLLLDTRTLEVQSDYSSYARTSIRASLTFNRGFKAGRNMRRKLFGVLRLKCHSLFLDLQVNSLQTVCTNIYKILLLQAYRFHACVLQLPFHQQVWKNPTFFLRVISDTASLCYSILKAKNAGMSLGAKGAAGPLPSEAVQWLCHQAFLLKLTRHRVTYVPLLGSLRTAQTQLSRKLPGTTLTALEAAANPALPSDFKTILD
Sequence of Inosine-5'-monophosphate dehydrogenase 2 (Mus musculus) (P24547 whole entry, looked up): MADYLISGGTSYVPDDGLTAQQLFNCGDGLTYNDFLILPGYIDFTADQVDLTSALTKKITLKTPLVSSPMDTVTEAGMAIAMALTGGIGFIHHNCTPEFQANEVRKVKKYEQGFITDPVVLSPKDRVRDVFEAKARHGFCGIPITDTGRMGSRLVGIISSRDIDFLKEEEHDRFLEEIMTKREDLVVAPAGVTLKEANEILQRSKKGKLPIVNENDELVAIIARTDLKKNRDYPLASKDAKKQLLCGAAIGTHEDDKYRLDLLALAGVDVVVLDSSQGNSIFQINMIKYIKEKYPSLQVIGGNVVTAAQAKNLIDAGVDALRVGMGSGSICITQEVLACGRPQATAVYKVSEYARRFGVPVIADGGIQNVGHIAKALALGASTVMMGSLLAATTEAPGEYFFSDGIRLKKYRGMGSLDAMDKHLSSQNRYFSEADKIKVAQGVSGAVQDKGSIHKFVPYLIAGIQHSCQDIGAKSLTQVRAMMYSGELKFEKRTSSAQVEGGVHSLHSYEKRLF
Sequence of DNA-directed DNA polymerase (Enterobacteria phage T4) (P04415 whole entry): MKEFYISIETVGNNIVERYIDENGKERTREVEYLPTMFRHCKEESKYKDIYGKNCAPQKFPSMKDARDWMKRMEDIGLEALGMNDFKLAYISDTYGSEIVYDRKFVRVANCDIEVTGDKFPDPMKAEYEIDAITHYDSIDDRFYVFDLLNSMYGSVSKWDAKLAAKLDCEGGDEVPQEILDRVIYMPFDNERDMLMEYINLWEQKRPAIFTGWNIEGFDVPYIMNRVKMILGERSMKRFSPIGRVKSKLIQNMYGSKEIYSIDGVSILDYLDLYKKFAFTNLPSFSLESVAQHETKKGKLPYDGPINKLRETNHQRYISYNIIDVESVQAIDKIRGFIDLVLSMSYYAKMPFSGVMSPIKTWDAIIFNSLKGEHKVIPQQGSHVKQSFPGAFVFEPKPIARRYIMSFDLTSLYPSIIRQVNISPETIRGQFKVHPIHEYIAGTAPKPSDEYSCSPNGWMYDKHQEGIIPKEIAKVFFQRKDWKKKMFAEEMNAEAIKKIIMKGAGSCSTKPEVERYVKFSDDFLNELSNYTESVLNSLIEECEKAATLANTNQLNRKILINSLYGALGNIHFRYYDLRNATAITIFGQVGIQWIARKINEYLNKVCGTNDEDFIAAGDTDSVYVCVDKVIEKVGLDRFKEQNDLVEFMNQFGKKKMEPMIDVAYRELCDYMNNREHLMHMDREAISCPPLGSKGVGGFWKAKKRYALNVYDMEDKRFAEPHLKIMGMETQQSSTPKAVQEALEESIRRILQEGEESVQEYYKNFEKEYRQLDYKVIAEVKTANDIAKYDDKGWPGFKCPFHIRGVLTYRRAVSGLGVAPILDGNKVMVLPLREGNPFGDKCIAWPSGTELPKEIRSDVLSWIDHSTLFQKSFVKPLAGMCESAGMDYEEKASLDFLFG
Sequence of DNA topoisomerase 1 (Homo sapiens) (P11387 whole entry): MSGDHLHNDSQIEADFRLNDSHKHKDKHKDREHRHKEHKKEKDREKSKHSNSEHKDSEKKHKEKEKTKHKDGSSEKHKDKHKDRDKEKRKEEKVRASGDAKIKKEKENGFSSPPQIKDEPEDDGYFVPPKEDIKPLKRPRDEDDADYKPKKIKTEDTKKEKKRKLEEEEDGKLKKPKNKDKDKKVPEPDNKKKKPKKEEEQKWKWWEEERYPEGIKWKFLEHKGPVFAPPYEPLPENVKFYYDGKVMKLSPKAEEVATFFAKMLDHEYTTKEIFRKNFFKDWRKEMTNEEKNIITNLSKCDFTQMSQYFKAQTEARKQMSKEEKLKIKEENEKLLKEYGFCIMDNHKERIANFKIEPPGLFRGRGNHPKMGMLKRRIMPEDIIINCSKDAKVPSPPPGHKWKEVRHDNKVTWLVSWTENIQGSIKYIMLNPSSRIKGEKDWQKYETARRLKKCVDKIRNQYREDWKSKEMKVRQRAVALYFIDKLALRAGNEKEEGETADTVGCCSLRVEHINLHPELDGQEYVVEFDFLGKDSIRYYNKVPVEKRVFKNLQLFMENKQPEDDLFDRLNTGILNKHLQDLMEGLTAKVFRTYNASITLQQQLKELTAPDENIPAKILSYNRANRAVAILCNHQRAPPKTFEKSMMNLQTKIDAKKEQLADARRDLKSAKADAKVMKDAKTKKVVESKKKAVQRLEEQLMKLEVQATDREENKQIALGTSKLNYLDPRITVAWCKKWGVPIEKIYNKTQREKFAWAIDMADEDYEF
Sequence of Polynucleotide kinase (Enterobacteria phage T4) (P06855 whole entry): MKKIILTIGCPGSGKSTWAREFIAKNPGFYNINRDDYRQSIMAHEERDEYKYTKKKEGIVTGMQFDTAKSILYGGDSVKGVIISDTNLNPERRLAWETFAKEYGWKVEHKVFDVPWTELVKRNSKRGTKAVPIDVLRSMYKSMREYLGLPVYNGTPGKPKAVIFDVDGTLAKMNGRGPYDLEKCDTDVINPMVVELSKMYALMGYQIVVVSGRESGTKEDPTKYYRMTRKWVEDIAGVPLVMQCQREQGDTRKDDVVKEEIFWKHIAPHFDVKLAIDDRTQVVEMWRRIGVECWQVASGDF
Sequence of DNA polymerase lambda (Homo sapiens) (Q9UGP5 whole entry): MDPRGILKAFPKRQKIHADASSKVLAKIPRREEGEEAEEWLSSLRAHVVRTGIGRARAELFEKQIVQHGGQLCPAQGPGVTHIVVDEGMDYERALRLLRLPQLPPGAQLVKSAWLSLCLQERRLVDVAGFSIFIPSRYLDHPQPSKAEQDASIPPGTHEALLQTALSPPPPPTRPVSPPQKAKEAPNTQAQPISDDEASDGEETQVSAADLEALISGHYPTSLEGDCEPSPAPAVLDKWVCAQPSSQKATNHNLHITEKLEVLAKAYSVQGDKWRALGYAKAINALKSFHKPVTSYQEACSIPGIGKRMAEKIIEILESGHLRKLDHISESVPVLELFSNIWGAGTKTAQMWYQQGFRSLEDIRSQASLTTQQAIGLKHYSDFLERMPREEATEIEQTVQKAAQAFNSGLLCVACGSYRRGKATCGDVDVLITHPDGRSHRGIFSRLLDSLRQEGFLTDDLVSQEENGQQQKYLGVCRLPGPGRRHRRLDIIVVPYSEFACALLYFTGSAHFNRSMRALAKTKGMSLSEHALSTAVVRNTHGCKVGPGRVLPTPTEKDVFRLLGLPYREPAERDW
Sequence of Deoxyribonuclease-1 (Bos taurus) (P00639 whole entry): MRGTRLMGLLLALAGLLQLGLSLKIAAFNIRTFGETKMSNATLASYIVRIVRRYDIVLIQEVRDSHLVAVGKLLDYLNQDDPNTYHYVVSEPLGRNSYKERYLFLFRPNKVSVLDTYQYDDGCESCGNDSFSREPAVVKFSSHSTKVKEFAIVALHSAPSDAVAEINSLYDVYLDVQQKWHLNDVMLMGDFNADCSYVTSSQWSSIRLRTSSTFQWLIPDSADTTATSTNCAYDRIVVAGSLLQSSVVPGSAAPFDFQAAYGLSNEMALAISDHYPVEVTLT
Sequence of DNA nucleotidylexotransferase (Bos taurus) (P06526 whole entry): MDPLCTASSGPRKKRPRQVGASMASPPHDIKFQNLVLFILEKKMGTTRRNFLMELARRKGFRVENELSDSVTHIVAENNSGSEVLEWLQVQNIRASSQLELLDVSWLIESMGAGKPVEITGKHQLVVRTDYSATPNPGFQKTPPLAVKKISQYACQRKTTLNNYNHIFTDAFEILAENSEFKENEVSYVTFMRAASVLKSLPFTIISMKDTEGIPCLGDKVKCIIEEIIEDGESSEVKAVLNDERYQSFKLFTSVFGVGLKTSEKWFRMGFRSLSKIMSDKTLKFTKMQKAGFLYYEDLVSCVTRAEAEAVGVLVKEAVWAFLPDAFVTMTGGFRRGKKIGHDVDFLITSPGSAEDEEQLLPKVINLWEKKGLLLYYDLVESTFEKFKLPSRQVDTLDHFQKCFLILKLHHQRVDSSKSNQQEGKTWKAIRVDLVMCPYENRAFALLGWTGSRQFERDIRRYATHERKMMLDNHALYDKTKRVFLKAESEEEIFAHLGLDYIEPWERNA

SMILES	Activity [1]	Activity [2]	Activity [3]	Activity [4]	Activity [5]	Activity [6]	Activity (Homo sapiens [7])	Activity (Bos taurus [8])	Activity (Homo sapiens [9])	Activity (Homo sapiens [10])	Activity [11]	Activity [12]	Activity [13]	Activity (Oncorhynchus masou)	Activity (Drosophila melanogaster [14])	Activity (Drosophila melanogaster [15])	Activity (Drosophila melanogaster [16])	Activity [17]	Activity (Escherichia coli)	Activity [18]	other results
COC1=C(C(=O)CC(C)O)C(=O)C(C)(/C=C/C=C/C(C)O)O1 (stereo unspecified)	Dose-dependent effect	Dose-dependent effect	Dose-dependent effect	Active	Active	Active	inactive	inactive	inactive	inactive	inactive	inactive	inactive	inactive	inactive	inactive	inactive	inactive	inactive	inactive	Activity (Thermus aquaticus): inactive; Activity (Bos taurus [19]): inactive; Activity [20]: inactive; Activity [21]: inactive; Activity (Escherichia phage T7): inactive; Activity [22]: inactive; Activity [23]: inactive; Activity (Homo sapiens [24]): inactive; Activity [25]: inactive; Activity [26]: inactive
C/C=C/C(=O)C1=C(OC)OC(C)(/C=C/C=C/C(C)O)C1=O (stereo unspecified)	Dose-dependent effect	Dose-dependent effect	Dose-dependent effect	Active	Active	Active	inactive	inactive	inactive	inactive	inactive	inactive	inactive	inactive	inactive	inactive	inactive	inactive	inactive	inactive	Activity (Thermus aquaticus): inactive; Activity (Bos taurus [19]): inactive; Activity [20]: inactive; Activity [21]: inactive; Activity (Escherichia phage T7): inactive; Activity [22]: inactive; Activity [23]: inactive; Activity (Homo sapiens [24]): inactive; Activity [25]: inactive; Activity [26]: inactive; Activity (Oryza sativa): inactive
